The values that follow come from publication PMC10609720, “Antiviral Activity of Flavonoids from Geopropolis of the Brazilian Jandaira Bee against Zika and Dengue Viruses” (Pharmaceutics, 2023).

One series concerns Vero cells. The experiment in a line: Cell viability assay (MTT) in Vero cells. It is filed as cell-based. The conditions noted are these: Vero cells. The procedure:
(§1) The cell toxicity induced by the three tested fractions and the isolated flavonoids was evaluated in a growing Vero cell. […] To this end, Vero cells (1 × 10^4 cells/well) were plated in 96-well microplates 24 h beforehand. […] After a period of 120 h at 37 °C in a 5% CO2 atmosphere, the culture medium was removed from the plate, and 50 μL of recently prepared MTT solution (1 mg/mL) was then added. The 96-well microplate was placed in a CO2 incubator for 4 h at 37 °C. After this period, the MTT solution was replaced by DMSO. Then, the optical density at 540 nm (OD540) was measured using a BioTekTM ELx800TM 96-well plate reader (BioTek Instruments Inc., Winooski, VT. The OD540 subtraction of treated cells compared to untreated cells was calculated. […] The CC20 value was empirically defined as the maximum safe limit to perform the antiviral screening. Results were expressed as mean ± SD of three independent replicates. The differences in viral titer of treated and untreated infected cells were analyzed according to ANOVA followed by the Dunnett test using GraphPad Prism software v.5.01 (GraphPad Software, La Jolla, CA, USA). The drug concentration that reduced viral titer by 50% (IC50) was defined using the same software. […] The CC50 and CC20 values were also calculated using GraphPad Prism software in a non-linear regression interpretation. The selective index (SI) was based on the ratio math of CC50 and IC50 values. Data were reported as the mean ± standard deviation (SD) of three independent experiments. Significance was only considered when p < 0.05.

In the next series the test system is ZIKV. The experiment in a line: Post-treatment antiviral assay, viral titration by TCID50, ZIKV-infected Vero cells. The series is classed as cell-based. Particulars: for % ZIKV Inhibition / IC50: Vero cells; for % ZIKV Inhibition: MOI 0.1, treated with CC20 of each sample for 120 h, TCID50; for IC50 / SI: ZIKV; for IC50: MOI 0.1, concentration to reduce viral titer by 50%; for SI: ratio of CC50 and IC50; for ZIKV-induced cytopathic effect in Vero cell monolayers: treatment at CC20, microscopy, Figure 4B,C. Here is the method:
(§2) One day prior to infection with the ZIKV or DENV strain, Vero cells were seeded in 24-well plates (5 × 10^4 cells/well). The infection was performed at the multiplicity of infection (MOI) of 0.1 for 2 h at 37 °C in 5% CO2. After virus internalization, the inoculum was removed, and the cells were washed using the growth medium. […] 6-MMPr, used as positive control drug, was also included as a drug treatment in some wells [33]. Controls of mock (non-infected) and infected non-treated cells were included. At 120 h post-infection (hpi), the cytopathic effect was evaluated using an inverted microscope (AE2000 binocular microscope, Motic, Hong Kong), and cells were photographed with a smartphone. The cell supernatant was harvested at 120 hpi and stored at −80 °C for posterior virus titration, using the TCID50 method.
(§3) The TCID50 method was used here to perform viral titration. The titer values were expressed as log10 TCID50/mL. One day prior to titration, Vero cells were seeded in a 96-well plate (1 × 10^4 cells/well) at 37 °C in a 5% CO2 incubator. The cell supernatants that were previous stored (see item 2.5—cytopathic effect assay) were serially diluted 10-fold in DMEM and submitted to the cell monolayer. After incubation for 5 days at 37 °C and 5% CO2, the cytopathic effect was observed through an inverted optical microscope, and the reduction in viral titer was defined according to Reed–Muench parameters.
(§4) The differences in viral titer of treated and untreated infected cells were analyzed according to ANOVA followed by the Dunnett test using GraphPad Prism software v.5.01 (GraphPad Software, La Jolla, CA, USA). The drug concentration that reduced viral titer by 50% (IC50) was defined using the same software. This represents the compound concentration required to reduce ZIKV or DENV titer by 50% when compared with the non-treated cells. The CC50 and CC20 values were also calculated using GraphPad Prism software in a non-linear regression interpretation. The selective index (SI) was based on the ratio math of CC50 and IC50 values. Data were reported as the mean ± standard deviation (SD) of three independent experiments. Significance was only considered when p < 0.05.

In a further series the test system is DENV-2. The experiment in a line: Post-treatment antiviral assay, viral titration by TCID50, DENV-infected Vero cells. It is filed as cell-based. Particulars: for IC50 / SI: DENV; for IC50 / % DENV-2 Inhibition: Vero cells; for IC50: MOI 0.1, concentration to reduce viral titer by 50%; for SI: ratio of CC50 and IC50; for % DENV-2 Inhibition: MOI 0.1, treated with CC20 of each sample for 120 h, TCID50. Here is the method:
as §2, §3, §4

Series [1] can be described thus: Cell viability assay (MTT) in Vero cells. The series is classed as cell-based. Particulars: African green monkey. The procedure:
as §1

The test system of a further series is Hela cells. On the set-up: method as in PMID 29354400. The conditions noted are these: at the tested concentrations, ref [59]; cited from earlier work.
Where [2] appears, read: Table 3, non-toxic concentration used in the antiviral assays.

Regarding `CSc1ncnc2c1ncn2[C@@H]1O[C@H](CO)[C@@H](O)[C@H]1O` [6-MMPr, 6-methylmercaptopurine riboside, reference compound], in the series on Vero cells (Table 2, MTT method, 120 h), the cytotoxic concentration (CC50) was 291 µM. Also, half-maximal cytotoxicity with Vero cells (Table 3) (CC50) was put at 291 µM. This compound yielded a CC20 with Vero cells (setting [2]) of 60.5 μM/mL. Besides, in the series on ZIKV, the “% ZIKV Inhibition” value was 51.5%, the IC50 is 24.5 µM and the SI was 11.9. For the same compound, in the series on DENV-2, the IC50 amounted to 18.2 µM, the SI is recorded as 16.0 and the “% DENV-2 Inhibition” value is 48.3%.
Compound `COc1cc(O)c2c(c1)O[C@H](c1ccc(O)cc1)CC2=O` [7-O-methyl naringenin] returned a CC50 at 120 h in series [1] of 240 µM. In the series with ZIKV, the “% ZIKV Inhibition” value came to 30.3%, the SI was 18.7 and the “ZIKV-induced cytopathic effect in Vero cell monolayers” value was “prevented morphological modifications”. Besides, in the series on ZIKV (Zika virus), 12.8 µM corresponded to half-maximal inhibition (IC50). Besides, in the series with DENV-2, the SI is 7.7 and the “% DENV-2 Inhibition” value amounted to 51.6%. For the same compound, in the series on DENV-2 (Dengue virus, DENV2), the midpoint of inhibition, the IC50, lay at 30.9 µM. The “DENV-induced cytopathic effect in Vero cell monolayers” value with DENV-2 (treatment at CC20, microscopy, Figure 5B,C) was “prevented morphological modifications”. In the series on Hela cells, the cell viability is reported as 100%.
Turning to `O=C1C[C@@H](c2ccc(O)cc2)Oc2cc(O)cc(O)c21` [Naringenin], half-maximal cytotoxicity in series [1] (CC50 at 120 h) was put at 242 µM. For the same compound, the CC20 amounted to 86.43 µM/mL in the series with Vero cells (Table 2, MTT method, 120 h) and 86.43 μM/mL in the series on Vero cells (setting [2]). Besides, the “% ZIKV Inhibition” value in the series on ZIKV came out at 34.7%. Further, the half-inhibitory concentration (IC50) in the series on ZIKV (Zika virus) amounted to 58.9 µM; with DENV-2 (Dengue virus, DENV2), 42.9 µM. Further, the “ZIKV-induced cytopathic effect in Vero cell monolayers” value in the series on ZIKV was “prevented morphological modifications”. In addition, the “% DENV-2 Inhibition” value with DENV-2 is 61.5%.
